The term IC50 denotes the concentration at which inhibition is half-maximal. By MIC is commonly meant the least concentration at which growth counts as inhibited.

Converted amounts (≈) assume the structure as drawn. The source made the active and inactive calls. The rule behind the calls is not given here.

The test system of one assay is HL-60. Nature of the assay: Cytotoxicity in human HL60 cells assessed as reduction in cel viability incubated for 24 or 72 hrs by SRB or MTT assay. Type of assay: functional, cell-based. (In general: Tetrazolium dyes change colour on reduction, which living cells bring about.)
A further assay relates to K562. Nature of the assay: Cytotoxicity in human K562 cells assessed as reduction in cel viability incubated for 24 or 72 hrs by SRB or MTT assay. Format: functional, cell-based.
For the next assay, the system named is Bel-7402. Nature of the assay: Cytotoxicity in human Bel7402 cells assessed as reduction in cel viability incubated for 24 or 72 hrs by SRB or MTT assay. Format: functional, cell-based.
A further assay relates to HCT-116. Put plainly: Cytotoxicity in human HCT116 cells assessed as reduction in cel viability incubated for 24 or 72 hrs by SRB or MTT assay. Type of assay: functional, cell-based.
The subject of another assay is A549. Put plainly: Cytotoxicity in human A549 cells assessed as reduction in cel viability incubated for 24 or 72 hrs by SRB or MTT assay. Type of assay: functional, cell-based.
The next assay concerns HeLa. Nature of the assay: Cytotoxicity in human HeLa cells assessed as reduction in cel viability incubated for 24 or 72 hrs by SRB or MTT assay. Format: functional, cell-based.
Another assay relates to L02. Nature of the assay: Cytotoxicity in human L02 cells assessed as reduction in cel viability incubated for 24 or 72 hrs by SRB or MTT assay. Type of assay: cell-based.
For a further assay, the system named is MGC-803. Nature of the assay: Cytotoxicity in human MGC803 cells assessed as reduction in cel viability incubated for 24 or 72 hrs by SRB or MTT assay. Type of assay: functional, cell-based.
Assay [1] in a line: Cytotoxicity in human HO8910 cells assessed as reduction in cel viability incubated for 24 or 72 hrs by SRB or MTT assay. Type of assay: functional, cell-based. To be noted: HO-8910.
In another assay the test system is SH-SY5Y. Put plainly: Cytotoxicity in human SH-SY5Y cells assessed as reduction in cel viability incubated for 24 or 72 hrs by SRB or MTT assay. Type of assay: functional, cell-based.
The next assay relates to PC-3. Put plainly: Cytotoxicity in human PC3 cells assessed as reduction in cel viability incubated for 24 or 72 hrs by SRB or MTT assay. Type of assay: functional, cell-based.
The test system of the next assay is MDA-MB-231. Put plainly: Cytotoxicity in human MDA-MB-231 cells assessed as reduction in cel viability incubated for 24 or 72 hrs by SRB or MTT assay. Type of assay: functional, cell-based.
In the next assay the test system is Penicillium crustosum. Nature of the assay: Antimicrobial activity against Penicillium crustosum PRB-2 assessed as inhibition of microbial growth at 25 ug/disk by disk diffusion test. Format: functional, organism-based. (In general: A growth-free zone around the sample is the usual read-out of agar diffusion tests.)
A further assay deals with Xylaria sp. Put plainly: Antimicrobial activity against Xylaria sp. HDN13-249 assessed as inhibition of microbial growth at 25 ug/disk by disk diffusion test. Type of assay: functional.
A further assay relates to Mycolicibacterium phlei. Nature of the assay: Antimicrobial activity against Mycobacterium phlei by BSAC standardized disc susceptibility testing method. Type of assay: functional.
The next assay relates to Bacillus subtilis. Nature of the assay: Antimicrobial activity against Bacillus subtilis by BSAC standardized disc susceptibility testing method. Format: functional.
The subject of a further assay is Vibrio parahaemolyticus. Put plainly: Antimicrobial activity against Vibrio parahaemolyticus by BSAC standardized disc susceptibility testing method. Type of assay: functional.

As to `CCCCC[C@H](O)CCCCCCCCCCCc1cc(O)cc(O)c1`, the IC50 with HL-60, in the assay with K562, with Bel-7402, in the assay with HCT-116, with A549 and in the assay with HeLa was more than 30 µM in each case. The IC50 (with L02; in the assay with MGC-803; in [1]; in the assay on SH-SY5Y; in the assay on PC-3; with MDA-MB-231) was more than 30 µM in each case. Further, the “growth inhibition (GI)” value in the assay on Penicillium crustosum and in the assay on Xylaria sp. was “inactive” throughout. Besides, the MIC was 25 µM (≈ 9.11 µg/mL) in the assay on Mycolicibacterium phlei, more than 200 µM against Bacillus subtilis and more than 200 µM against Vibrio parahaemolyticus.
For the compound `CCCCC[C@@H](CCCCCCCCCCCc1cc(O)cc(O)c1C(=O)O)OS(=O)(=O)O`, the IC50 with HL-60, with K562, in the assay with Bel-7402, in the assay with HCT-116, in the assay with A549 and in the assay with HeLa was more than 30 µM each time. In addition, the IC50 (in the assay on L02; with MGC-803; in assay [1]; in the assay with SH-SY5Y; with PC-3; with MDA-MB-231) was more than 30 µM each time. In addition, the “growth inhibition (GI)” value with Penicillium crustosum and with Xylaria sp. was “inactive” throughout.
As for `O=C(O)c1cn(C2CC2)c2cc(N3CCNCC3)c(F)cc2c1=O` [CIPROFLOXACIN], the MIC is 1.56 µM (≈ 0.517 µg/mL) in the assay on Mycolicibacterium phlei, 1.56 µM (≈ 0.517 µg/mL) in the assay on Bacillus subtilis and 12.5 µM (≈ 4.14 µg/mL) against Vibrio parahaemolyticus.
Turning to `CCCCC[C@H](O)CCCCCCCCCCCc1cc(O)cc(O)c1C(=O)O`, the IC50 in the assay on HL-60, in the assay on K562, in the assay with Bel-7402, in the assay with HCT-116, in the assay on A549 and with HeLa was more than 30 µM each time. The IC50 (with L02; in the assay with MGC-803; in assay [1]; in the assay with SH-SY5Y; in the assay on PC-3; in the assay on MDA-MB-231) was more than 30 µM each time. In addition, the “growth inhibition (GI)” value in the assay with Penicillium crustosum and with Xylaria sp. was “inactive” each time. For the same compound, the MIC against Mycolicibacterium phlei was 6.25 µM (≈ 2.55 µg/mL); with Bacillus subtilis, more than 200 µM; against Vibrio parahaemolyticus, 12.5 µM (≈ 5.11 µg/mL).

The record behind these values is ChEMBL document CHEMBL4339248, “Secondary Metabolites Produced by Combined Culture of Penicillium crustosum and a Xylaria sp” (J Nat Prod, 2019).
